From US20130084267A1, “METHOD FOR STEM CELL DIFFERENTIATION” (THE UNIVERSITY OF QUEENSLAND, priority 2010, published 2013)

Key:
MEL1 = assay: qRT-PCR gene expression analysis of SB431542-treated MEL1; type: cell-based, human; conditions: MEL1, 10 μM SB431542, 10 days
Procedure: The pluripotent hESC line, MEL1, was cultured in KOSR medium with 10 μM SB431542 treatment. After 10 days treatment, MEL1 cells were subcultured in MSC medium for differentiating MSC cells. […] SB431542 treated cells and MEL1-MSC P2 were analyzed for gene expression. (a-d) OCT4, SOX2, MYST2 and EPCAM genes associated with iPSC pluripotency. (e-h) NCAM, MSX2, LEFTY1 and BMP4 genes expressed by cell lineages from the mesoderm. (i-j) PAX6 gene is expressed by cell lineages from the ectoderm and CDX2 gene is expressed by cell lineages from the trophectoderm. (k) GATA gene expressed by cell lineages from the endoderm. (l-o) Genes expressed by MSC (positive in CD29, CD73 and negative in the CD117, CD133). Gene expression was normalized to GAPDH. All experiments represent duplicates. […] (A, B) The heat map of mRNA expression level was assayed by qRT-PCR array. ESC/iPSC cells were cultured in KOSR condition medium with 10 μM SB431542. After 10 days treatment, cells were subcultured into MSC medium to differentiate cells into MSC. RNA was extracted from MEL1 and MR90 cells at day 10. […] (C) Relative mRNA transcripts folds change of quantitative RT-PCR analysis in the indicated cell subsets. All the gene expression level was normalized to GAPDH mRNA level and compared to genes level in the mTESR culture condition. […]

iPSC = assay: Immunofluorescence marker analysis of iPSC differentiated in the presence of SB431542; type: cell-based, human
From the text: Nuclei were counter-stained with dapi (blue). […] Nuclei were counter-stained with dapi (blue).

ALK-4, -5 and -7 = conditions: Inman et al. 2002; Laping et al. 2002; cited from earlier work
SMAD2/3 phosphorylation = conditions: Xu et al. 2008; cited from earlier work
hESC = assay: Morphology of hESC cultured in the presence of SB431542; type: cell-based, human; conditions: after 10 days incubation with SB431542
From the text: (A) hESC remain as tightly packed colonies of small cells when cultured in normal growth conditions. […] (B) When these cells are transferred to MSC media, they again change morphology and become fibroblastic. (C) MSC also have a fibroblast-like morphology. (D) hiPSC line ES4CL1 also differentiates though an epithelial-like morphology into MSC-like cells with this SB431542 inhibitor culture method.
Day −4 to −1: hESC/iPSC were dissociated from mouse embryonic fibroblast (MEF) feeder layer and seeded on either un-coated flasks (i.e., which allow for adherence (attachment) of the pluripotent cells to the surface) or matrigel-coated flasks in mTESR (defined pluripotent stem cell media, Stem Cell Technologies; i.e. serum free, feeder layer free).
Day 1: when cell colonies were approximately 40% confluent, 10 uM SB431542 inhibitor (Sigma Aldrich) was added in DMEM:F12+20% knock out serum replacement (KOSR, Invitrogen) media.
Day 2-9: 20% KOSR+SB431542 inhibitor media replaced daily.
Day 7-10: when 90%+ cells have differentiated from hESC colonies to a monolayer with epithelial-like morphology, cells were passaged using TrypleSelect. Single cells were then seeded at 3×10^4-1.5×10^5 cells/cm^2 in fetal MSC medium (DMEM-HG+10% MSC qualified FBS), then passage when nearly confluent as for MSC.

MR90 cells = assay: Flow cytometry analysis of EPCAM expression in SB431542-treated MR90; type: cell-based, human
Procedure: (a) the isotype Ab control. […] The EPCAM-(CD326-) cell population have been identified as the precursors of the mesodermal cell lineage. These cells can be further differentiated into mesenchymal stem cell lineage, like MSC. The iPSC MR90 cells were cultured in mTeSR and KOSR condition medium with SB431542 for 10 days, and then subcultured into MSC medium to differentiate cells into MSC. […] Analysis was performed by flow cytometry for EPCAM expression in the SB431542-treated MR90 cells after at 10 days in culture.

[1] = system: BMP signaling utilizing ALK-1, -2, -3, and -6; conditions: Inman et al. 2002; Laping et al. 2002; cited from earlier work
MR90 = assay: qRT-PCR gene expression analysis of SB431542-treated MR90; type: cell-based, human; conditions: MR90, 10 μM SB431542, 10 days
Procedure: Pluripotent iPSC, MR90, were cultured in KOSR medium with 10 μM SB431542 treatment for 10 days. After 10 days treatment, MR90 cells were subcultured in the MSC medium for differentiating MSC cells. […] MSC are indicated as MR90-MSC P0 (passage 0). The SB431542 treated cells and MR90-MSC P0 were analyzed for gene expression. (a-d) OCT4, SOX2, MYST2 and EPCAM genes associated with iPSC pluripotency. (e-h) NCAM, MSX2, LEFTY1 and BMP4 genes expressed by cell lineages from the mesoderm. (i-j) PAX6 gene is expressed by cell lineages from the ectoderm and CDX2 gene is expressed by cell lineages from the trophectoderm. (k) GATA gene expressed by cell lineages from the endoderm. (l-o) Genes expressed by MSC (positive in CD29, CD73 and negative in the CD117, CD133). Gene expression was normalized to GAPDH. All experiments represent duplicates.
(A, B) The heat map of mRNA expression level was assayed by qRT-PCR array. ESC/iPSC cells were cultured in KOSR condition medium with 10 μM SB431542. […] (C) Relative mRNA transcripts folds change of quantitative RT-PCR analysis in the indicated cell subsets. […]
Pluripotent iPSC (MR90) were cultured in mTESR medium and KOSR medium with 10 μM SB431542 for 10 days. […] After 10 days, SB431542-treated cells and MR90-MSC P0 cells were analyzed for gene expression (see FIG. 13). […]

[2] = compared with undifferentiated cells in mTeSR medium

NC(=O)c1ccc(-c2nc(-c3ccc4c(c3)OCO4)c(-c3ccccn3)[nH]2)cc1 [SB431542, 4-[4-(1,3-benzodioxol-5-yl)-5-(2-pyridinyl)-1H-imidazol-2-yl]-benzamide]
differentiation into germ layer lineages (lineage gene expression) (MEL1): enhanced MEL1 differentiation into mesoderm (MSX1, MSX2, SOX9, NCAM1, BMP4), ectoderm (PAX6), trophectoderm (CDX2), endoderm (GATA4) and MSC cells (CD73, CD29)
relative mRNA levels of pluripotent genes (Pou5F (Oct4), SOX2, MYST2) (MEL1; [2]): decreased
expression of pluripotency markers (Oct4, Nanog, Stella, SSEA3, Tra 1-60 and Tra 1-81) (iPSC): decreased expression
inhibition of ALK-4, -5 and -7 (ALK-4, -5 and -7): selective and potent inhibitor
effect on SMAD2/3 phosphorylation and NANOG promoter activity in hESC (SMAD2/3 phosphorylation): inhibiting SMAD2/3 phosphorylation and subsequent decrease in NANOG promoter activity
cell morphology (hESC): differentiated into an epithelial-like monolayer
population of EPCAM+ MR90 cell (MR90 cells; KOSR medium with SB431542, 10 days, decreased from 22.84%): 5.94%
population of EPCAM+ MR90 cell (MR90 cells; MTESR medium with SB431542, 10 days, decreased from 45%): 8.14%
effect on BMP signaling utilizing ALK-1, -2, -3, and -6 [1]: without affecting
differentiation into germ layer lineages (lineage gene expression) (MR90): induced MR90 differentiate into mesoderm (MSX1, MSX2, NCAM1, BMP4), ectoderm (PAX6) and trophectoderm (CDX2)
relative mRNA levels of pluripotent genes (Pou5F (Oct4), SOX2, MYST2) (MR90; [2]): decreased
